Experiment [1] concerns the target T1, Beta-lactamase (Staphylococcus aureus, UniProt P00807). As to the kind of experiment: Concentration required for its inhibitory activity against Staphylococcus aureus Russel class A beta-lactamase; No inhibition.
The next experiment has as its target Beta-lactamase TEM (Escherichia coli, UniProt P62593). As to the kind of experiment: Concentration required for its inhibitory activity against Escherichia coli JT4(TEM1) class A beta-lactamase.
Experiment [2] has as its target T2, Beta-lactamase OXA-1 (Escherichia coli, UniProt P13661). The experiment in a line: Concentration required for its inhibitory activity against Escherichia coli K12(OXA1) class D beta-lactamase.
In a further experiment the target is T3, Beta-lactamase pse-1 (Escherichia coli, UniProt Q2V0Y6).
T3 sequence (Q2V0Y6 whole entry): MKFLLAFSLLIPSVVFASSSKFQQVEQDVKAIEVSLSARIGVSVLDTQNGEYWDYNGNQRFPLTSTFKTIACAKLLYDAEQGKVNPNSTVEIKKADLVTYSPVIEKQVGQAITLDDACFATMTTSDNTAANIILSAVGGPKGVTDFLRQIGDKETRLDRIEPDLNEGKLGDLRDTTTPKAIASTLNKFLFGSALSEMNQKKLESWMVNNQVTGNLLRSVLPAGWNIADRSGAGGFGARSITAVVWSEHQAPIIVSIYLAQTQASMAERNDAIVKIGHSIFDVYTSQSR
As to the kind of experiment: Concentration required for its inhibitory activity against Escherichia coli K12(PSE4) class A beta-lactamase.

Experiment [3] has as its target Beta-lactamase (Enterobacter cloacae, UniProt P05364). The experiment in a line: Concentration required for its inhibitory activity against Enterobacter cloacae P99 class C beta-lactamase.
The target in experiment [4] is T4, Beta-lactamase (Proteus mirabilis, UniProt P30897).
T4 sequence (P30897 whole entry): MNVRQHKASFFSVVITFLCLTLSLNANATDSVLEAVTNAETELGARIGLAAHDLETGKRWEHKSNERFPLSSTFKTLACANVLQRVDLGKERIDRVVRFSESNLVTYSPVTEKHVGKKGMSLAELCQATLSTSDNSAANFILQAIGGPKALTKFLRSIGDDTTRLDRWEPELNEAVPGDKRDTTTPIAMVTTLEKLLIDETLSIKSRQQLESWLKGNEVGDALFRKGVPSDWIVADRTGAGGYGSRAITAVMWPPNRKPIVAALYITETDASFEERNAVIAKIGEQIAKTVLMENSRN
The experiment in a line: Concentration required for its inhibitory activity against Proteus mirabilis C889 class A beta-lactamase.

The target of experiment [5] is Beta-lactamase (Pseudomonas aeruginosa (strain ATCC 15692 / PAO1 / 1C / PRS 101 / LMG12228), UniProt P24735). As to the kind of experiment: Concentration required for its inhibitory activity against Pseudomonas aeruginosa class C beta-lactamase.
Sequence of Beta-lactamase (Pseudomonas aeruginosa (strain ATCC 15692 / PAO1 / 1C / PRS 101 / LMG12228), UniProt P24735) (P24735 whole entry): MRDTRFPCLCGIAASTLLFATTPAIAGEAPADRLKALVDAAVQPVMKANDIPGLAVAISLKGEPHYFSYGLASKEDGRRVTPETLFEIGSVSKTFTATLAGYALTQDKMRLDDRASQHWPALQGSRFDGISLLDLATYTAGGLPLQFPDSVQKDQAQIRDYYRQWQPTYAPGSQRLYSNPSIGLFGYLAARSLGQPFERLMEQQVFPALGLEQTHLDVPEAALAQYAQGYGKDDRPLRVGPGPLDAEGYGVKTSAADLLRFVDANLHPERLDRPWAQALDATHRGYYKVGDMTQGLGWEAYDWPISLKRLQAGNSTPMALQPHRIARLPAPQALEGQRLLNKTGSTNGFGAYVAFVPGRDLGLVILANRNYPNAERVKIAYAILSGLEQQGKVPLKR
For experiment [6], the target named is T1, Beta-lactamase. As to the kind of experiment: Concentration required for its inhibitory activity against Staphylococcus aureus Russel class A beta-lactamase.
The target of experiment [7] is T4, Beta-lactamase. The experiment in a line: Concentration required for its inhibitory activity against Proteus mirabilis C889 class A beta-lactamase; No inhibition.
The target of experiment [8] is T2, Beta-lactamase OXA-1. As to the kind of experiment: Concentration required for its inhibitory activity against Escherichia coli K12(OXA1) class D beta-lactamase; No inhibition.

Values after ≈ are worked out from the molar mass of the structure shown.

The IC50 is the concentration needed to halve the response being measured. Low values mean greater potency, high ones weaker potency.

Sequence of Beta-lactamase TEM (P62593 whole entry): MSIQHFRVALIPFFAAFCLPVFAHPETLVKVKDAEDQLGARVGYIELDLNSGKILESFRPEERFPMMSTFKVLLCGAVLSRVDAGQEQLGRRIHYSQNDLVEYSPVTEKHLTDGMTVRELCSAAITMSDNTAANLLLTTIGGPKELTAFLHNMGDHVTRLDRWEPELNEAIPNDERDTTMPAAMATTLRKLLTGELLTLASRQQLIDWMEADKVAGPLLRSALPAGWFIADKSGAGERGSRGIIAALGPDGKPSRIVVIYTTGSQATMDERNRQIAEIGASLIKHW
T1 sequence (P00807 whole entry): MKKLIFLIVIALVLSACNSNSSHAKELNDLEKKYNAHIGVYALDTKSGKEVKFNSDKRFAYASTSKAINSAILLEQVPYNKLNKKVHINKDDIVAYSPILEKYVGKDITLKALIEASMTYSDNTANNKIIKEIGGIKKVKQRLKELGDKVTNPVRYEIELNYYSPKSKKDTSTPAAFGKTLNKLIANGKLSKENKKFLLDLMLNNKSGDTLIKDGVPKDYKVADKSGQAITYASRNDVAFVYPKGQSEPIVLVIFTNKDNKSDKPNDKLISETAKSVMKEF
T2 sequence (P13661 whole entry): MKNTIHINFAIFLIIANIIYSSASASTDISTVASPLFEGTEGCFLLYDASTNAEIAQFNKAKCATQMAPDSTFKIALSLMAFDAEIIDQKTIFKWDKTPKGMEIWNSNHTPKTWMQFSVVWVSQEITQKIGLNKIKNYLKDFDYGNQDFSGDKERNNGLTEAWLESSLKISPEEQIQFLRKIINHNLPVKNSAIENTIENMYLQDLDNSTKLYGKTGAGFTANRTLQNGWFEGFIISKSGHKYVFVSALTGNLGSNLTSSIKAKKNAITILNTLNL
Sequence of Beta-lactamase (Enterobacter cloacae, UniProt P05364) (P05364 whole entry): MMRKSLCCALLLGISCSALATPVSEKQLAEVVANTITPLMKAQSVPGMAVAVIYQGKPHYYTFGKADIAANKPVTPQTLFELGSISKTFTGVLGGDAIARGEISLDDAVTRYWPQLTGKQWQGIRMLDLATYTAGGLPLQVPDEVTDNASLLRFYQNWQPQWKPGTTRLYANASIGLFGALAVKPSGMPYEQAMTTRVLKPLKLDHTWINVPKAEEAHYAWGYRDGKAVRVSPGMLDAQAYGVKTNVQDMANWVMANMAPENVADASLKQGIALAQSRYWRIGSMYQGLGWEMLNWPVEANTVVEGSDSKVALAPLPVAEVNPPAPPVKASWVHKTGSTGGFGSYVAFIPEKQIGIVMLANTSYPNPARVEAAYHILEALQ

With `CCCCCCCCCCc1ccccc1C(=O)O`, the IC50 result was “Not Active” against Beta-lactamase [1] and 18 mg/L (≈ 68.6 µM) against Beta-lactamase TEM.
As for `CCCCCCCCCCCCCCCCCc1cccc(O)c1C(=O)O`, the concentration for half-maximal inhibition (IC50) result against Beta-lactamase [1] was “Not Active”; at Beta-lactamase OXA-1 [2], 29 mg/L (≈ 77 µM); at Beta-lactamase pse-1, 0.7 mg/L (≈ 1.86 µM); against Beta-lactamase [3], 1 mg/L (≈ 2.66 µM); on Beta-lactamase [4] it was 8.3 mg/L (≈ 22 µM); against Beta-lactamase [5], 9.1 mg/L (≈ 24.2 µM). This compound also returned a 50% inhibitory concentration (IC50) on Beta-lactamase TEM of 1.9 mg/L (≈ 5.05 µM).
On to `CCCCCCCCCCCCCCCc1cccc(OC)c1C(=O)O`, for which the 50% inhibitory concentration (IC50) result against Beta-lactamase [1] was “Not Active”; against Beta-lactamase OXA-1 [2] it was above 33 mg/L; at Beta-lactamase pse-1, 0.6 mg/L (≈ 1.65 µM); on Beta-lactamase [3], 2.5 mg/L (≈ 6.9 µM); on Beta-lactamase [4] it was 22 mg/L (≈ 60.7 µM); against Beta-lactamase [5], 11 mg/L (≈ 30.3 µM). Besides, the half-maximal inhibitory concentration (IC50) against Beta-lactamase TEM worked out at 0.8 mg/L (≈ 2.21 µM).
For `CCCCCCCCCCc1cccc(O)c1O`, on Beta-lactamase [3], the IC50 stood at 21 mg/L (≈ 83.9 µM).
Turning to `CCCCCCCCCCc1cccc(O)c1`, the concentration for half-maximal inhibition (IC50) entry at Beta-lactamase [6] was “Not Active”; on Beta-lactamase pse-1, 4.1 mg/L (≈ 17.5 µM); at Beta-lactamase [3] it was 4.5 mg/L (≈ 19.2 µM); against Beta-lactamase [7], “Not Active”; at Beta-lactamase TEM, 1.9 mg/L (≈ 8.11 µM).
As to `CCCCCCCCc1cccc(O)c1C(=O)O`, the IC50 result was “Not Active” against Beta-lactamase [1], “Not Active” on Beta-lactamase OXA-1 [8], 16 mg/L (≈ 63.9 µM) on Beta-lactamase pse-1 and 3.9 mg/L (≈ 15.6 µM) against Beta-lactamase [4].
Take `CCC=CCC=CCC=CCCCCCCCc1cccc(O)c1C(=O)O`: the values for the half-inhibitory concentration (IC50) result against Beta-lactamase [1], against Beta-lactamase pse-1 and against Beta-lactamase [3] were “Not Active”, 10 mg/L (≈ 27 µM) and 17 mg/L (≈ 45.9 µM), respectively.
Consider `CC(C)CCCCCCCCCCCCCc1cccc(O)c1C(=O)O`, for which the IC50 result is “Not Active” on Beta-lactamase [1], 9 mg/L (≈ 24.8 µM) against Beta-lactamase [3], 16 mg/L (≈ 44.1 µM) against Beta-lactamase [5] and 9.7 mg/L (≈ 26.8 µM) against Beta-lactamase TEM.
With `CCC(C)CCCCCCCCCCCCc1cccc(O)c1C(=O)O` (stereo not given), the figures for the IC50 on Beta-lactamase [3], on Beta-lactamase [5] and at Beta-lactamase TEM were 31 mg/L (≈ 85.5 µM), 36 mg/L (≈ 99.3 µM) and 10 mg/L (≈ 27.6 µM), respectively.
Take `CCCCCCCCCCCCCCCc1cccc(O)c1`: the figures for the IC50 against Beta-lactamase pse-1, against Beta-lactamase [3] and against Beta-lactamase [7] were 20 mg/L (≈ 65.7 µM), 7.2 mg/L (≈ 23.6 µM) and “Not Active”, respectively.
Regarding `CCCCCCCCCCc1cccc(O)c1C(=O)O`, the concentration for half-maximal inhibition (IC50) result against Beta-lactamase [1] is “Not Active”; against Beta-lactamase TEM it was 12 mg/L (≈ 43.1 µM).
With `CCCCCCCCCCCCCCCc1cccc(O)c1O`, the IC50 against Beta-lactamase [3] was 29 mg/L (≈ 90.5 µM).
`C=CC/C=C\C/C=C\CCCCCCCc1cccc(O)c1C(=O)O` [ANACARDIC ACID]: the half-inhibitory concentration (IC50) result was “Not Active” on Beta-lactamase [1]; 25 mg/L (≈ 73 µM) against Beta-lactamase OXA-1 [2]; 1.1 mg/L (≈ 3.21 µM) at Beta-lactamase pse-1; 1.4 mg/L (≈ 4.09 µM) on Beta-lactamase [3]; 31 mg/L (≈ 90.5 µM) against Beta-lactamase [4]; 7.2 mg/L (≈ 21 µM) against Beta-lactamase [5]. Also, the IC50 against Beta-lactamase TEM was 0.8 mg/L (≈ 2.34 µM).
`O=C(O)[C@H]1/C(=C/CO)O[C@@H]2CC(=O)N21` [CLAVULANIC ACID] registered a concentration for half-maximal inhibition (IC50) against Beta-lactamase pse-1 of 0.015 mg/L (≈ 0.0753 µM).

The record behind these values is ChEMBL document CHEMBL1152016, “Synthesis and -lactamase inhibition of anacardic acids and their analogues” (Bioorg Med Chem Lett, 1994).
